# Entries after “also recorded” stand apart in the source; their conditions may differ.
# Legend:
# [1] = tested on: A2Cs of miR-34a^fl/fl and miR-34a^cKO mice; test: Tobacco smoke exposure of miR-34a fl/fl and miR-34a cKO mice; assay type: in vivo, mouse; conditions: for telomere shortening (qPCR): 20 weeks TS; for telomerase enzyme activity: TS
# Procedure: (§1) To analyze the effect of cigarette smoke, mice were exposed to passive smoke from 40 research cigarettes over a 2-hour period once (2 h) or twice (4 h) daily for 5 days/week for 20 weeks (˜90 mg/m^3 total solid particulates) using a mechanical smoking chamber (Teague Enterprises, Davis, CA). Control mice were exposed to ambient air. At the 18th week, peptide treatment at a dosage of 30 μg/20 g body weight was initiated and continued on a daily basis for the next 14 days. At the end of the experiment, the mice were euthanized and used for the experiments.
# (§2) To test the effect of chronic TS exposure induced lung injury, these mice were exposed to passive TS from 40 research cigarettes over a 4 h period 5 days/week for 20 weeks (˜90 mg/m3 total solid particulates) using a mechanical smoking chamber (Teague Enterprises, Davis, CA) as described earlier. (Bhandary et al, 2015). Control mice were kept in ambient air. After sixteen weeks of daily passive TS exposure, mice with TS exposure injury were treated with CSP7 at a dosage of 1.5 mg/kg body weight daily 5 days/week for the next four weeks. These mice were continued with daily exposure of 4 h of TS during CSP7 treatment. At the end of the experiment (after 20 weeks of TS exposure), the mice were euthanized, and lungs were utilized for further analyses. To expand the local delivery options of CSP7 to directly treat the damaged lung by air-jet milling for dry powder inhalation (DPI). Mice exposed to TSE were treated with CSP7 using a rotating brush generator for 15 min daily for 7 days. Fourteen days later, BLM mice were subjected to daily inhalation of micronized CSP7 (0.05 mg/kg/d) DP through air-jet-milling for seven consecutive days using a rotating brush exposure system. The rotating brush exposure system gave a consistent minimal chamber concentration of 0.1 mg/L. In order to match dosing of DP inhalation, animal exposure times were adjusted to approximately 15 minutes and an estimated dose of 0.05 mg/kg/d or 1.00 microgram/lung was administered.
# Inducible conditional knockout (miR-34a^cKO) mice lacking miR-34a expression in A2ECs were generated by crossing miR-34a^fl/fl mice with SP-C^Cre/mTmG mice (FIG. 62A). RNA from A2ECs of miR-34a^fl/fl or miR-34a^cKO mice treated with tamoxifen were analyzed for miR-34a. […] After 20 weeks, A2ECs were isolated from these mice and analyzed for changes in miR-34a. […] A2ECs from miR-34a^fl/fl and miR-34a^cKo mice were next isolated and tested the lysates for changes in p53 and PAI-1 expression, and apoptosis. PTS induced p53 and PAI-1 expression in A2ECs of miR-34a^fl/fl mice. These changes were associated increased of A2EC apoptosis and senescence. […] These mice also resisted A2ECs apoptosis or senescence (FIG. 62C).
# A2Cs of PAI-1^−/− mice = test: Tobacco smoke or repeated bleomycin exposure of PAI-1-/- mice; assay type: in vivo, mouse; conditions: for IHC TRF1 or TRF2 antigen expression / telomerase enzyme activity (trapeze) / telomere length: PAI-1-/- mice; for IHC TRF1 or TRF2 antigen expression / telomerase enzyme activity (trapeze): TS; for telomere length: smoke or BLM; for p53, Acp53, S15p53, cleaved caspase-3, β-galactosidase, SIAH1/2, PNUTS, TRF1, TRF2, TERT (Western blot): 8X-BLM; for telomere length (qPCR): 20 weeks TS; for p53, Acp53, S15p53, cleaved caspase-3, β-galactosidase in AT2 cells (Western blot): CS 20 weeks
# Procedure: as §1
# To analyze the effect of BLM, mice were exposed to BLM (40 μg/20 g body weight) once per two week for 16 weeks. Control mice were exposed to normal saline. At 14th week the peptide treatment at a dosage of 30 μg/20 g body weight was initiated and continued on a daily basis for the next 14 days. At the end of the experiment, the mice were euthanized and used for the experiments.
# as §2
# To evaluate the effect of CSP7 against chronic BLM-induced PF, the mice were exposed to BLM (40 μg/20 g body weight) once every two weeks for 16 weeks as described elsewhere. (Tiwari et al, 2016). Control mice were exposed to normal saline. Fourteen weeks later the CSP7 at a dosage of 1.5 mg/kg body weight was administered by IP injection and continued daily basis for the next two weeks as described elsewhere. (Tiwari et al, 2016; Shetty et al, 2008b). At the end of the experiment, the mice were euthanized and lung tissues and isolated A2Cs from the extracted lung tissues were used for further analysis.
# PP2A = PP2A activity assay in AECs and lung tissues from COPD lungs; assay type: cell-based, human
# Procedure: PP2A Activity Determination and PP2A Inhibitors PP2A activity was determined using the Millipore PP2A activity assay (17-313; Millipore) (Nath S, et al., Am J Respir Cell Mol Biol. 59:695-705, 2018 December).
# Determination of protein phosphatase 2A (PP2A) activity. PP2A activity was determined in isolated AECs and lung homogenates using the PP2A activity assay kit (Millipore) (Nath et al, Am J Respir Cell Mol Biol 59:695-705, 2018. doi: 10.1165/rcmb.2018-01730C.)
# AECs from COPD lungs = AECs from COPD lungs treated in vitro for 48 h; assay type: cell-based, human
Substance,telomerase enzyme activity ([1]; miR-34a^fl/fl mice),IHC TRF1 or TRF2 antigen expression (A2Cs of PAI-1^−/− mice),telomerase enzyme activity (trapeze) (A2Cs of PAI-1^−/− mice),telomere length (A2Cs of PAI-1^−/− mice),"p53, Acp53, S15p53, cleaved caspase-3, β-galactosidase, SIAH1/2, PNUTS, TRF1, TRF2, TERT (Western blot) (A2Cs of PAI-1^−/− mice; PAI-1-deficient mice)",telomere length (qPCR) (A2Cs of PAI-1^−/− mice; PAI-1-deficient mice),"p53, Acp53, S15p53, cleaved caspase-3, β-galactosidase in AT2 cells (Western blot) (A2Cs of PAI-1^−/− mice; PAI-1-deficient mice)","PP2A activity (PP2A; AECs from COPD lungs, 48 h)","MUC5AC, HDAC6, FOXA3, CAV1 and FOXA2 mRNA (qPCR) (AECs from COPD lungs)",further results
"FTTFTVT (listed as Homo sapiens) [CSP7, heptapeptide fragment of the caveolin-1 scaffolding domain peptide CSP]",significant upregulation; also recorded: reversed,minimal change in TRF1 or TRF2 antigen expression,no significant change activity,no significant change in telomere length,little or no difference,minimal effect on telomere length,little or no difference,increased activity of PP2AC; also recorded: significantly improved,reversed by CSP7 treatment; also recorded: significantly suppressed,"miR-34a expression in A2ECs (qRT-PCR) ([1]; WT or miR-34a^fl/fl mice, 20 weeks PTS): reduced miR-34a expression; telomere shortening (qPCR) ([1]; WT or miR-34a^fl/fl mice): protected from telomere shortening; also recorded: significant protection against TS-induced telomere shortening; miR-34a expression in A2ECs ([1]; miR-34a^cKO mice, 20 weeks PTS): minimal effect; telomere shortening (qPCR) ([1]; miR-34a^cKO mice): minimal effect; telomerase enzyme activity ([1]; miR-34a^cKO mice): did not upregulate telomerase activity; also recorded: limited effects on baseline telomerase activity; p53, PAI-1, A2EC apoptosis and senescence ([1]; miR-34a^fl/fl mice, PTS): inhibited p53, PAI-1 and A2EC apoptosis and senescence; expression of p53 in A2Cs (A2Cs of PAI-1^−/− mice; PAI-1-deficient mice, TS or BLM): minimal effect; CIP2A mRNA (AECs from COPD lungs): significant suppression of CIP2A mRNA; co-localization of MUC5AC/HDAC6 and Ac-Tub/LC3 (immunofluorescence) (AECs from COPD lungs): co-localization was reversed; number of ciliated AECs and cilia length (AECs from COPD lungs): restored; acridine orange staining of acidic vesicles (late autophagic vacuoles) (AECs from COPD lungs; 6 h): reversed by CSP7; also recorded: marked reduction in red fluorescence; Cav1 mRNA (qPCR) (AECs from COPD lungs; 48 h): reversed"
"WGIDKAFFTTSTVTYKWFRY [CP, scrambled control peptide with the same amino acid composition as CSP, reference compound]",little effect,minimal change in TRF1 or TRF2 antigen expression,no significant change activity,no significant change in telomere length,little or no difference,minimal effect on telomere length,little or no difference,failed to increase the PP2A activity,"continued to exhibit elevated levels of MUC5AC, HDAC6, FOXA3, and CAV1 mRNA with low FOXA2 mRNA","PP2A activity (PP2A; COPD lung tissues ex vivo, 10 μM, 72 h): minimal effect"
